Data reported in US9828375B2, “4-position substituted pyrazolopyrimidine derivative, and use thereof in drug preparation” (Guangxi Wuzhou Pharmaceuticals (Group) Co., Ltd., priority 2012, dated 2017).

Key:
[1] = target: PDGFRα (Homo sapiens, UniProt P16234); assay: Kinase inhibition activity test, isotope labeling: PDGFRα; assay type: biochemical; conditions: for inhibition at 10 µM / Activity inhibition rate PDGFRα (h): test compound at a concentration of 10 μM; for inhibition at 10 µM: read-out: Activity inhibition rate PDGFRα (h)
Experimental: (§1) The purpose of this experiment was to test the inhibitory activity of the compound of the invention for in vitro kinase with the isotope labeling method (the γ phosphate group on ATP was labeled). In this experiment, the in vitro activity inhibition of such kinases as FLT3, VEGFR2, FLT1, FLT4, RET, c-RAF, B-RAF, c-KIT, PDGFα, PDGFβ, FGFR2, FGFR1, EphA2, EphB2, SRC, ABL, ALK and Met was tested respectively. Staurosporine was reference molecule (or referred to as positive control). The kinase inhibition activity of the test compound was expressed by half-inhibitory concentration (IC50) or the kinase activity inhibition rate of the test compound at a concentration of 10 μM. The IC50 value could be obtained by calculating the kinase activity inhibition rate of the test compound at different concentrations.
(§2) 20 mM 3-(N-morpholinyl)propanesulfonic acid (MOPS); 1 mM ethylenediaminetetraacetic acid (EDTA), 0.01% Brij 35 (Brij-35), 5% glycerol, 0.1% mercaptoethanol, 1 mg/mL bovine serum albumin (BSA), 10 mM manganous dichloride solution (MnCl2), 0.1 mg/mL glutamic acid/tyrosine (4:1) polypeptide (poly(Glu, Tyr)4:1), 50 μM EAIYAAPFAKKK (substrate of FLT3), 0.33 mg/mL myelin basic protein (substrate of VEGFR2), 250 μM KKKSPGEYVNIEFG (substrate of FLT1(h)), 500 μM GGEEEEYFELVKKKK (substrate of FLT4(h)), 250 μM KKKSPGEYVNIEFG (substrate of RET), 0.66 mg/mL myelin basic protein (substrate of C-RAF), 250 μM GGMEDIYFEFMGGKKK (substrate of c-Kit), 250 μM GGMEDIYFEFMGGKKK (substrate of PDGFα), 250 μM KKKSPGEYVNIEFG (substrate of FGFR1), […] GGEEEEYFELVKKKK (substrate of SRC), 50 μM EAIYAAPFAKKK (substrate of ABL), 250 μM KKKSPGEYVNIEFG (substrate of ALK), 250 μM KKKSPGEYVNIEFG (substrate of Met(h)), 10 mM magnesium acetate and γ-^33 P-ATP solution, stop buffer (3% phosphate buffer), washing buffer (75 mM phosphate solution), methanol, Filtermat A membrane, FLT3, VEGFR2, FLT3, VEGFR2, FLT1, FLT4, RET, c-RAF, B-RAF, c-KIT, PDGFRα, PDGFRβ, FGFR2, FGFR1, EphA2, EphB2, SRC, ABL, ALK, Met and other kinases, and the test compounds.
(§3) Buffers (8 mM MOPS with pH value of 7.0, 0.2 mM EDTA and 10 mM MnCl2), (5-10 mU) kinases to be tested (FLT3, VEGFR2, FLT1, FLT4, RET, c-RAF, B-RAF, c-KIT, PDGFRα, PDGFRβ, FGFR2, FGFR1, EphA2, EphB2, SRC, ABL, ALK and Met), substrates of kinases to be tested (refer to experimental materials), 10 mM magnesium acetate and γ-^33 P-ATP solution, and test compounds at different concentrations were added to a reaction tube orderly. […] Reaction was terminated with 5 μL 3% phosphate buffer finally, and 10 μL reaction solution was titrated to the Filtermat A membrane; solution was washed for 3 times with 75 mM phosphate solution with each time lasting 5 minutes, and then washed once with methanol. Finally, the Filtermat A membrane was dried, and scintillation counting was performed on the membrane, with scintillation count reflecting the phosphorylation degree of the substrates, so that the activity inhibition of kinase could be characterized.

[2] = test system: human gastric carcinoma cell line MKN-45; assay: In vitro tumor cell proliferation inhibition (MTT): MKN-45; assay type: cell-based
Text: (§4) The purpose of the experiment was to test the inhibition activity of the compounds of the invention for in vitro human tumor cell proliferation by the methyl thiazolyl tetrazolium (MTT) colorimetry.
(§5) Main reagents: RPMI-1640, fetal bovine serum, pancreatin, etc. were purchased from Gibco BRL Company (Invitrogen Corporation, USA) and IMDM medium that was purchased from American Type Culture Collection (ATCC). Methyl thiazolyl tetrazolium (MTT) and dimethyl sulfoxide (DMSO) were products from Sigma Company (USA). Pyrazolopyrimidine derivatives were composed by the inventor. During in vitro experiment, 100% DMSO was prepared into 10 mM storage solution, the solution was stored in a refrigerator at −20° C. for future use, and was diluted to the required concentration with complete culture solution before use.
(§6) Cell line and culture: Human leukemia cell line MV4-11, Jurkat, K562, human thyrophyma cell line TT, human gastric carcinoma cell line MKN-45, human malignant melanoma cell lines A375 and A875, human pancreatic carcinoma cell line panc-1, human cervical carcinoma cell line HELA, human colorectal carcinoma cell line HCT116, etc. were purchased from American type culture collection and were preserved by this laboratory. All leukemia cell lines (except MV4-11), gastric carcinoma cell lines and thyrophyma cell lines were cultured in RPMI-1640 complete medium containing 10% fetal bovine serum, 100 U/mL penicillin and 100 μg/mL streptomycin at 37° C. in 5% CO2. The remaining cell lines were cultured in DMEM complete medium containing 10% fetal bovine serum (containing 20% MV4-11 cell), 100 U/mL penicillin and 100 µg/mL streptomycin at 37° C. in 5% CO2.
(§7) Cell suspension with cell concentration of 1-2×10^4/mL was adjusted with the complete cell medium and inoculated in a 96-well plate, with each well filled with 200 μl cell suspension that was cultured overnight. On the next day, supernatant was sucked and abandoned (supernatant was sucked upon centrifugation of suspension cells), and then cells were processed with test compounds at gradient concentrations respectively. Meanwhile, a negative control group free from drug and a solvent control group with equal volume were set, and the DMSO concentration was 0.1%. Each dose group was provided with three wells and cultured at 37° C. in 5% CO2. After 72 hours, 20 μl 5 mg/mL MTT reagent was added to each well, and cultured for another 2 to 4 hours, the supernatant was abandoned; 150 μL DMSO was added to each well again, vibrated and mixed evenly for 15 minutes; the absorbance (A) values (proportional to living cell amount) were determined with a microplate reader (λ=570 nm) and averaged. […] Experiment was repeated for 3 times at least. Experimental data were expressed with means, data statistics were tested by t, and P<0.05 means that difference has a statistical significance. The cell proliferation inhibition effects of all compounds as follows are expressed by IC50 or inhibition rate.

[3] = target: c-KIT (Homo sapiens, UniProt P10721); assay: Kinase inhibition activity test, isotope labeling: c-KIT; assay type: biochemical; conditions: for inhibition at 10 µM / Activity inhibition rate c-Kit (h): test compound at a concentration of 10 μM; for inhibition at 10 µM: read-out: Activity inhibition rate c-Kit (h)
Experimental: as §1, §2, §3

[4] = test system: human malignant melanoma cell line A875; assay: In vitro tumor cell proliferation inhibition (MTT): A875; assay type: cell-based
Text: as §4, §5, §6, §7

[5] = test system: human malignant melanoma cell line A375; assay: In vitro tumor cell proliferation inhibition (MTT): A375; assay type: cell-based
Text: as §4, §5, §6, §7

PDGFRα, sequence (P16234 24-1089): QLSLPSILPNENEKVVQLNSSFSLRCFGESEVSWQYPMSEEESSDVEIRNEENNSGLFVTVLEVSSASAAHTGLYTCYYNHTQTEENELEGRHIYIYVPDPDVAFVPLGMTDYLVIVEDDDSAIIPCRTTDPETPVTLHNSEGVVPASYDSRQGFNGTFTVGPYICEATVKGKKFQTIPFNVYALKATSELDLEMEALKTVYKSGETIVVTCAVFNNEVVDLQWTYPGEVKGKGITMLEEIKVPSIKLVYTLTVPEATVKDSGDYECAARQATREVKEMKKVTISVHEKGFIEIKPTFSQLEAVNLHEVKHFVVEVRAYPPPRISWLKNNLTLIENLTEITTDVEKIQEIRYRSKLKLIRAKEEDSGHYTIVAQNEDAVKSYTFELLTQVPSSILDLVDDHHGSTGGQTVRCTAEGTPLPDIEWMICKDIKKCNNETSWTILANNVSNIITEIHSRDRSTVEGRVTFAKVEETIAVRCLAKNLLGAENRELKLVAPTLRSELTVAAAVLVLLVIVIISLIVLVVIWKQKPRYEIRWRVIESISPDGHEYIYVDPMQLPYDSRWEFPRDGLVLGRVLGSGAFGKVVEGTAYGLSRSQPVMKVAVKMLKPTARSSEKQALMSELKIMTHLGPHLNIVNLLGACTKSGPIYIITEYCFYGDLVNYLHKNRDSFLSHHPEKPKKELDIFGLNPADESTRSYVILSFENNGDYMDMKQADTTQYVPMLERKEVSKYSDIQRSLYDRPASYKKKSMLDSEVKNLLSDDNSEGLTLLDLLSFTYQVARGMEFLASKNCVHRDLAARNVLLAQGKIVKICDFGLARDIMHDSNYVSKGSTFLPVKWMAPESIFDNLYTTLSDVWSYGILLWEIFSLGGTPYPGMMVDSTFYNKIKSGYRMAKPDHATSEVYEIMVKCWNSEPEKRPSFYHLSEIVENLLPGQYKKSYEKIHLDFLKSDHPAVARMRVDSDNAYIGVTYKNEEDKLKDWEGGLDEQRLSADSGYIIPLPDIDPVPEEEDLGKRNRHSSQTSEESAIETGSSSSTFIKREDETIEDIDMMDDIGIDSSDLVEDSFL
c-KIT, sequence (P10721 26-976): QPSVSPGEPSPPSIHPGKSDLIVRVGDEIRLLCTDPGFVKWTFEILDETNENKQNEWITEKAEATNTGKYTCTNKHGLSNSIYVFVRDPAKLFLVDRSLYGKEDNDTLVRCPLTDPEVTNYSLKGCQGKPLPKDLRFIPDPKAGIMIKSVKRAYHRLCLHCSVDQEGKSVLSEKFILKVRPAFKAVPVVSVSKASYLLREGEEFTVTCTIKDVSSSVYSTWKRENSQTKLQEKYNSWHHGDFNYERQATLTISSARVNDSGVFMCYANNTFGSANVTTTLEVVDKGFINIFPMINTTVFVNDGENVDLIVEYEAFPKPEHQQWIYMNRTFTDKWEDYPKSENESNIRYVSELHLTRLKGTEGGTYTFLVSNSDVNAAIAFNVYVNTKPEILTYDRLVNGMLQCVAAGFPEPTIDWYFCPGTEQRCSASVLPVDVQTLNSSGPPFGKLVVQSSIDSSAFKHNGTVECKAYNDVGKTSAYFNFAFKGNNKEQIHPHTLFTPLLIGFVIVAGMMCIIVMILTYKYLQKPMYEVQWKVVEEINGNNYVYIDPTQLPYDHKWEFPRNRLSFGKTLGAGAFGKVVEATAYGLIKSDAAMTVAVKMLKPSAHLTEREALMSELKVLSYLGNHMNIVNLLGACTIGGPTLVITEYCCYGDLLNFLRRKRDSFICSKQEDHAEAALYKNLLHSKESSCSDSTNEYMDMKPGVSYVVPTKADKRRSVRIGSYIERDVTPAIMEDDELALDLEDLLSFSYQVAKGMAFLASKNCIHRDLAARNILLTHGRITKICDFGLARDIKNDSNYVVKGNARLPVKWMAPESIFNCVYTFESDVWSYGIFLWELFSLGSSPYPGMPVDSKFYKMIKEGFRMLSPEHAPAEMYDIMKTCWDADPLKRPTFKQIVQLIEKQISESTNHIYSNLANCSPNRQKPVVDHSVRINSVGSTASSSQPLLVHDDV

Row | inhibition at 10 µM [1] [%] | IC50 ([2]; Homo sapiens, MKN-45, 72 hours) [µM] | inhibition at 10 µM [3] [%] | IC50 ([4]; Homo sapiens, A875, 72 hours) [µM] | IC50 ([5]; Homo sapiens, A-375, 72 hours) [µM] | Activity inhibition rate PDGFRα (h) [1] [%] | IC50 ([2]; 72 hours) [µM] | Activity inhibition rate c-Kit (h) [3] [%] | IC50 ([4]; 72 hours) [µM] | IC50 ([5]; 72 hours) [µM] | Compound | IC50 ([1]; ATP 120 μM, read-out: PDGFRα IC50 value (inhibitory activity value)) [µM] | IC50 ([3]; ATP 200 μM, read-out: c-KIT IC50 value (inhibitory activity value)) [µM]
1 | > 30 | < 50 | > 30 | < 50 | < 50 |  |  |  |  |  | Cc1cc(C)c(NC(=O)Nc2ccc(NC(=O)N3C=NC=C4NNC=C43)cc2)c(C)c1 [4b-7, 1-(4-(1H-pyrazolopyrimidine-4-amido)phenyl)-3-(2,4,6-trimethylphenyl)urea] |  | 
2 |  |  |  |  |  | 24 | 7.63 | 29 | < 50 | < 50 | O=C(Nc1ccc(C(F)(F)F)cc1)Nc1ccc(Oc2ncnc3[nH]ncc23)c(F)c1 [4a-9, 1-(4-((1H-pyrazolopyrimidine-4-yl)oxy)-3-fluorophenyl)-3-(4-(trifluoromethyl)phenyl)urea] |  | 
3 |  |  |  |  |  | >30 | < 50 | >30 | < 50 | < 50 | C[C@H](NC(=O)Nc1ccc(Nc2ncnc3[nH]ncc23)cc1)c1ccccc1 [4b-4] |  | 
4 |  |  |  |  |  | 96 | < 50 | 100 | < 50 | < 50 | C[C@H](NC(=O)Nc1ccc(Oc2ncnc3[nH]ncc23)cc1)c1ccccc1 [4a-18, (S)-1-(4-((1H-pyrazolopyrimidine-4-yl)oxy)phenyl)-3-(1-phenethyl)urea] |  | 
5 | > 50 | 3 to 10 | > 90 | < 50 | < 50 |  |  |  |  |  | O=C(Nc1ccc(Oc2ncnc3[nH]ncc23)cc1)Nc1cc(C(F)(F)F)on1 [4a-28] |  | 
6 | 63 | < 50 | 100 | 3 to 10 | < 50 |  |  |  |  |  | O=C(Nc1ccc(Oc2ncnc3[nH]ncc23)cc1)Nc1ccc(C(F)(F)F)cc1 [4a-1] |  | 
7 |  |  |  |  |  | 52 | 8.29 | 58 | < 50 | < 50 | O=C(Nc1ccc(Oc2ncnc3[nH]ncc23)cc1)Nc1cc(C(F)(F)F)cc(C(F)(F)F)c1 [4a-12, 1-(4-((1H-pyrazolopyrimidine-4-yl)oxy)phenyl)-3-(3,5-bis(trifluoromethyl)phenyl)urea] |  | 
8 |  |  |  |  |  | >50 | 8.71 | >90 | < 50 | < 50 | O=C(Nc1ccc(Sc2ncnc3[nH]ncc23)cc1)Nc1cccc(C(F)(F)F)c1 [4c-2] |  | 
9 |  |  |  |  |  | 84 | < 50 | 93 | < 50 | < 50 | C[C@@H](NC(=O)Nc1ccc(Oc2ncnc3[nH]ncc23)cc1)c1ccccc1 [4a-19, (R)-1-(4-((1H-pyrazolopyrimidine-4-yl)oxy)phenyl)-3-(1-phenethyl)urea] |  | 
10 | > 30 | < 50 | > 30 | < 50 | < 50 |  |  |  |  |  | COc1cccc(NC(=O)Nc2ccc(Nc3ncnc4[nH]ncc34)cc2)c1 [4b-3] |  | 
11 |  |  |  |  |  | 93 | < 50 | 98 | < 50 | < 50 | 1-(4-((1H-pyrazolopyrimidine-4-yl)oxy)phenyl)-3-(methylcyclohexyl)urea [4a-20] |  | 
12 |  |  |  |  |  | 64 | 7.65 | 95 | 6.97 | 4.65 | 1-(4-((1H-pyrazolopyrimidine-4-yl)oxy)-3-fluorophenyl)-3-(3-trifluoromethoxy)phenyl)urea [4a-8] |  | 

Row | Compound | inhibition at 10 µM [1] [%] | IC50 ([2]; Homo sapiens, MKN-45, 72 hours) [µM] | inhibition at 10 µM [3] [%] | IC50 ([4]; Homo sapiens, A875, 72 hours) [µM] | IC50 ([5]; Homo sapiens, A-375, 72 hours) [µM] | Activity inhibition rate PDGFRα (h) [1] [%] | IC50 ([2]; 72 hours) [µM] | Activity inhibition rate c-Kit (h) [3] [%] | IC50 ([4]; 72 hours) [µM] | IC50 ([5]; 72 hours) [µM] | IC50 ([1]; ATP 120 μM, read-out: PDGFRα IC50 value (inhibitory activity value)) [µM] | IC50 ([3]; ATP 200 μM, read-out: c-KIT IC50 value (inhibitory activity value)) [µM]
13 | O=C(Nc1ccc(Oc2ncnc3[nH]ncc23)cc1)Nc1cccc(C(F)(F)F)c1 [4a-6] | 97 | 9.71 | 100 | 6.24 | 3.45 |  |  |  |  |  | 0.322 | 0.313
